Measurements taken from patent US20250352663A1 (priority 2022, published 2025).

Columns and labels:
human tumor cells = conditions: cited from earlier work
B16-F10 melanoma cells = assay: B16-F10 cell growth / proliferation monitoring; format: cell-based; conditions: eATP, 2 mM, compared with AuNC@ATP 2.25 μM
tumor = conditions: intraperitoneal injection of ATP (50 mM); cited from earlier work
[1] = test system: human prostate cancer xenografts; conditions: daily intraperitoneal administration of ATP (25 mM); cited from earlier work

Structure (SMILES)	growth of human tumor cells (cell cycle) (human tumor cells)	inhibiting B16-F10 cell proliferation (B16-F10 melanoma cells)	tumor size (tumor)	tumor regression [1]
Nc1ncnc2c1ncn2[C@@H]1O[C@H](COP(=O)(O)OP(=O)(O)O)[C@@H](O)[C@H]1O [ADP]	arrest of growth in the S phase			
Nc1ncnc2c1ncn2[C@@H]1O[C@H](COP(=O)(O)OP(=O)(O)OP(=O)(O)O)[C@@H](O)[C@H]1O [free ATP, Adenosine triphosphate]	arrest of growth in the S phase	does not achieve the same level of effectiveness	effectively reduced tumor size	significant tumor regression
